Results taken from PMC12446476 (Nature Communications, 2025).
Where “and” joins values, the source holds several entries; their conditions need not be identical. Identical values can stand only once. Like-named read-outs stand apart in the source and are kept apart here.

Tests used:
E. coli WP2 uvrA = assay: Ames assay, E. coli strain; assay type: cell-based
Procedure: (§1) Ames assays were performed using four strains of Salmonella typhimurium (TA1535, TA1537, TA98 and TA100) and a single strain of E. coli (WRP2 uvrA) in the presence and absence of S9 tissue homogenate. Dose levels (µg/plate) up to 4000 were assessed for WP2 uvrA and TA98, 500 for TA1535, 250 for TA1537 and 62.5 for TA100.

human lymphocytes = assay: In vitro micronucleus test; assay type: cell-based
[1] = tested on: Salmonella typhimurium (TA1535, TA1537, TA98 and TA100); assay type: cell-based
Procedure: as §1

[2] = TA98, without S9, 62.5 µg/plate
[3] = TA100, without S9, 15.6 µg/plate
[4] = TA100, without S9, 31.3 µg/plate
[5] = TA1535, without S9, 10 µg/plate
[6] = TA1535, without S9, 15.6 µg/plate
[7] = TA1535, without S9, 31.3 µg/plate
[8] = TA1535, without S9, 62.5 µg/plate
[9] = TA1535, without S9, 250 µg/plate
[10] = TA1537, without S9, 10 µg/plate
[11] = TA1537, without S9, 15.6 µg/plate
[12] = TA1537, without S9, 31.3 µg/plate
[13] = TA1537, without S9, 62.5 µg/plate

Procedure for Caco-2 cell monolayers: Various controls were assessed in parallel, including atenolol (low permeability) and diclofenac (high permeability).
(§2) The instrument operated in positive ionisation mode (ESI + ) over a m/z range of 80–1000 (n = 1 measure per sample). Data were extracted from chromatograms using calculated monoisotopic accurate masses for protonated molecular ions within 5 ppm windows.
Procedure for human hepatocytes: Pooled human hepatocytes from 10-donor males (BioIVT, West Sussex, UK; MX008001) or 10-donor females (BioIVT, West Sussex, UK; FX008001) were incubated with test compounds (or vehicle) and the compound concentration was measured over time. Samples were incubated at 37 °C and concentrations were assessed after 0, 20-, 40-, 60- and 240-min. Verapamil was included as a control.
as §2

Cc1c(CN(C)C(=O)/C=C/c2cnc3c(c2)N[C@H](C)[C@H](OP(=O)([O-])[O-])C(=O)N3)oc2ccccc12.[Na+].[Na+] [Debio 1453 P]
Intrinsic clearance (Clint) (human hepatocytes): < 0.44 µL/min/million cells
Ames bacterial mutation assessment, Mean (E. coli WP2 uvrA; with S9, 62.5 µg/plate): 32
Colony count (E. coli WP2 uvrA; with S9, 62.5 µg/plate): 33 and 34 and 28
Ames bacterial mutation assessment, Mean (E. coli WP2 uvrA; with S9, 250 µg/plate): 31
Colony count (E. coli WP2 uvrA; with S9, 250 µg/plate): 33 and 31 and 30
Ames bacterial mutation assessment, Mean (E. coli WP2 uvrA; with S9, 500 µg/plate): 34
Colony count (E. coli WP2 uvrA; with S9, 500 µg/plate): 34 and 36 and 31
Ames bacterial mutation assessment, Mean (E. coli WP2 uvrA; with S9, 1000 µg/plate): 28
Colony count (E. coli WP2 uvrA; with S9, 1000 µg/plate): 26 and 30 and 28
Ames bacterial mutation assessment, Mean (E. coli WP2 uvrA; with S9, 2000 µg/plate): 26
Colony count (E. coli WP2 uvrA; with S9, 2000 µg/plate): 27 and 26 and 25
Ames bacterial mutation assessment, Mean (E. coli WP2 uvrA; with S9, 4000 µg/plate): 25
Colony count (E. coli WP2 uvrA; with S9, 4000 µg/plate): 25 and 26 and 23
Ames bacterial mutation assessment, Mean (E. coli WP2 uvrA; without S9, 62.5 µg/plate): 32
Colony count (E. coli WP2 uvrA; without S9, 62.5 µg/plate): 31 and 30 and 36
Ames bacterial mutation assessment, Mean (E. coli WP2 uvrA; without S9, 250 µg/plate): 26
Colony count (E. coli WP2 uvrA; without S9, 250 µg/plate): 26 and 28 and 25
Ames bacterial mutation assessment, Mean (E. coli WP2 uvrA; without S9, 500 µg/plate): 25
Colony count (E. coli WP2 uvrA; without S9, 500 µg/plate): 21 and 26 and 27
Ames bacterial mutation assessment, Mean (E. coli WP2 uvrA; without S9, 1000 µg/plate): 24
Colony count (E. coli WP2 uvrA; without S9, 1000 µg/plate): 25 and 24
Ames bacterial mutation assessment, Mean (E. coli WP2 uvrA; without S9, 2000 µg/plate): 24
Colony count (E. coli WP2 uvrA; without S9, 2000 µg/plate): 21 and 25
Ames bacterial mutation assessment, Mean (E. coli WP2 uvrA; without S9, 4000 µg/plate): 22
Colony count (E. coli WP2 uvrA; without S9, 4000 µg/plate): 23 and 18 and 24
in vitro micronucleus test result (human lymphocytes): negative
Ames bacterial mutation assessment, Mean ([1]; TA98, with S9, 62.5 µg/plate): 34
Colony count ([1]; TA98, with S9, 62.5 µg/plate): 35 and 36 and 30
Ames bacterial mutation assessment, Mean ([1]; TA98, with S9, 250 µg/plate): 26
Colony count ([1]; TA98, with S9, 250 µg/plate): 28 and 26 and 23
Ames bacterial mutation assessment, Mean ([1]; TA98, with S9, 500 µg/plate): 12
Colony count ([1]; TA98, with S9, 500 µg/plate): 14 and 12 and 11
Ames bacterial mutation assessment, Mean [1, 2]: 32
Colony count [1, 2]: 36 and 29 and 32
Ames bacterial mutation assessment, Mean ([1]; TA98, without S9, 250 µg/plate): 22
Colony count ([1]; TA98, without S9, 250 µg/plate): 24 and 21 and 20
Ames bacterial mutation assessment, Mean ([1]; TA98, without S9, 500 µg/plate): 12
Colony count ([1]; TA98, without S9, 500 µg/plate): 12 and 13 and 10
Ames bacterial mutation assessment, Mean ([1]; TA100, with S9, 5 µg/plate): 141
Colony count ([1]; TA100, with S9, 5 µg/plate): 143 and 140 and 141
Ames bacterial mutation assessment, Mean ([1]; TA100, with S9, 10 µg/plate): 128
Colony count ([1]; TA100, with S9, 10 µg/plate): 123 and 133 and 128
Ames bacterial mutation assessment, Mean ([1]; TA100, with S9, 15.6 µg/plate): 60
Colony count ([1]; TA100, with S9, 15.6 µg/plate): 57 and 59 and 64
Ames bacterial mutation assessment, Mean ([1]; TA100, with S9, 31.3 µg/plate): 30
Colony count ([1]; TA100, with S9, 31.3 µg/plate): 30 and 29 and 32
Ames bacterial mutation assessment, Mean ([1]; TA100, without S9, 5 µg/plate): 146
Colony count ([1]; TA100, without S9, 5 µg/plate): 146 and 143 and 149
Ames bacterial mutation assessment, Mean ([1]; TA100, without S9, 10 µg/plate): 134
Colony count ([1]; TA100, without S9, 10 µg/plate): 125 and 145 and 131
Ames bacterial mutation assessment, Mean [1, 3]: 59
Colony count [1, 3]: 66 and 54 and 58
Ames bacterial mutation assessment, Mean [1, 4]: 33
Colony count [1, 4]: 32 and 31 and 36
Ames bacterial mutation assessment, Mean ([1]; TA1535, with S9, 10 µg/plate): 18
Colony count ([1]; TA1535, with S9, 10 µg/plate): 19 and 16
Ames bacterial mutation assessment, Mean ([1]; TA1535, with S9, 15.6 µg/plate): 15
Colony count ([1]; TA1535, with S9, 15.6 µg/plate): 18 and 14
Ames bacterial mutation assessment, Mean ([1]; TA1535, with S9, 31.3 µg/plate): 16
Colony count ([1]; TA1535, with S9, 31.3 µg/plate): 17 and 16 and 14
Ames bacterial mutation assessment, Mean ([1]; TA1535, with S9, 62.5 µg/plate): 14
Colony count ([1]; TA1535, with S9, 62.5 µg/plate): 15 and 12 and 16
Ames bacterial mutation assessment, Mean ([1]; TA1535, with S9, 250 µg/plate): 6
Colony count ([1]; TA1535, with S9, 250 µg/plate): 5 and 7
Ames bacterial mutation assessment, Mean ([1]; TA1535, with S9, 500 µg/plate): 5
Colony count ([1]; TA1535, with S9, 500 µg/plate): 6 and 5
Ames bacterial mutation assessment, Mean [1, 5]: 19
Colony count [1, 5]: 18 and 21
Ames bacterial mutation assessment, Mean [1, 6]: 17
Colony count [1, 6]: 17 and 16
Ames bacterial mutation assessment, Mean [1, 7]: 13
Colony count [1, 7]: 14 and 13
Ames bacterial mutation assessment, Mean [1, 8]: 11
Colony count [1, 8]: 11 and 12
Ames bacterial mutation assessment, Mean [1, 9]: 6
Colony count [1, 9]: 6 and 8 and 4
Ames bacterial mutation assessment, Mean ([1]; TA1535, without S9, 500 µg/plate): 4
Ames bacterial mutation assessment, Mean ([1]; TA1537, with S9, 10 µg/plate): 17
Colony count ([1]; TA1537, with S9, 10 µg/plate): 16 and 19
Ames bacterial mutation assessment, Mean ([1]; TA1537, with S9, 15.6 µg/plate): 18
Colony count ([1]; TA1537, with S9, 15.6 µg/plate): 19 and 16 and 18
Ames bacterial mutation assessment, Mean ([1]; TA1537, with S9, 31.3 µg/plate): 10
Colony count ([1]; TA1537, with S9, 31.3 µg/plate): 10 and 11 and 9
Ames bacterial mutation assessment, Mean [1, 10]: 19
Colony count [1, 10]: 17 and 20 and 19
Ames bacterial mutation assessment, Mean [1, 11]: 18
Colony count [1, 11]: 19 and 20 and 16
Ames bacterial mutation assessment, Mean [1, 12]: 15
Colony count [1, 12]: 16 and 14
Ames bacterial mutation assessment, Mean [1, 13]: 7
Colony count [1, 13]: 8 and 6
Ames assay result ([1]; presence and absence of S9, highest concentrations tested): non-mutagenic
Apparent permeability (Papp) (Caco-2 cell monolayers): negligible
permeability through transwells A → B (Caco-2 cell monolayers): 31.8 ×10⁻⁶ cm/s
